Experimental data taken from PubChem BioAssay AID220 (DTP/NCI, 2004).
Several values for one entry are separate records, joined by “and”; a condition that tells them apart may be missing. Equal values may be shown once. Results filed as inconclusive are left out.

Test system: CD8F1 mice, subcutaneous mammary adenocarcinoma, T/C%
Experiment: NCI In Vivo Anticancer Drug Screen. Data for tumor model Mammary Adenocarcinoma CD8F1 (subcutaneous) in CD8F1
Settings: higher = larger tumour
In short: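 Compound-treated versus vehicle-treated mice with transplantable tumors; survival or tumor size compared as T/C.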

[1] = endpoint: median tumor weight (est.), dose: 12.5 mg/kg/injection, schedule: Q07DX005 (ip), vehicle: suspension in saline
[2] = endpoint: median tumor weight (est.), dose: 25.0 mg/kg/injection, schedule: Q07DX005 (ip), vehicle: suspension in saline
[3] = endpoint: median tumor weight (est.), dose: 50.0 mg/kg/injection, schedule: Q07DX005 (ip), vehicle: suspension in saline
[4] = endpoint: median tumor weight change, dose: 125.0 mg/kg/injection, schedule: Q01DX001 (ip), vehicle: saline with Tween-80
[5] = endpoint: median tumor weight change, dose: 250.0 mg/kg/injection, schedule: Q01DX001 (ip), vehicle: saline with Tween-80
[6] = endpoint: median tumor weight change, dose: 500.0 mg/kg/injection, schedule: Q01DX001 (ip), vehicle: saline with Tween-80
[7] = endpoint: median tumor weight change, dose: 1000.0 mg/kg/injection, schedule: Q01DX001 (ip), vehicle: saline with Tween-80

COc1ccc(CC2C(=O)NC(C)C(=O)N(C)C3Cc4ccc(cc4)Oc4cc(ccc4O)CC(C(=O)NC(C)C(=O)NC(C)C(=O)N2C)N(C)C3=O)cc1 (stereo not given)
T/C (endpoint: median tumor weight change, dose: 1.25 mg/kg/injection, schedule: Q01DX001 (ip), vehicle: saline with Tween-80): 55 % of control | T/C (endpoint: median tumor weight change, dose: 2.5 mg/kg/injection, schedule: Q01DX001 (ip), vehicle: saline with Tween-80): 111 % of control | T/C (endpoint: median tumor weight change, dose: 5.0 mg/kg/injection, schedule: Q01DX001 (ip), vehicle: saline with Tween-80): 115 % of control | T/C (endpoint: median tumor weight change, dose: 10.0 mg/kg/injection, schedule: Q01DX001 (ip), vehicle: saline with Tween-80): 56 % of control | T/C (endpoint: median tumor weight change, dose: 20.0 mg/kg/injection, schedule: Q01DX001 (ip), vehicle: saline with Tween-80): 81 % of control

CCOC(=O)c1c[nH]c2oc(/C=N/N3CC(CN4CCOCC4)OC3=O)cc2c1=O (stereo not given)
T/C [1]: 107 % of control | T/C [2]: 87 % of control | T/C [3]: 97 % of control | T/C (endpoint: median tumor weight (est.), dose: 100.0 mg/kg/injection, schedule: Q07DX005 (ip), vehicle: suspension in saline): 155 % of control | T/C (endpoint: median tumor weight (est.), dose: 400.0 mg/kg/injection, schedule: Q07DX005 (ip), vehicle: suspension in saline): 94 % of control

COc1ccc2c(ccc3oc([N+](=O)[O-])cc32)c1
T/C (endpoint: median tumor weight change, dose: 62.5 mg/kg/injection, schedule: Q01DX001 (ip), vehicle: saline with Tween-80): 77 % of control | T/C [4]: 63 % of control | T/C [5]: 76 % of control | T/C [6]: 86 % of control | T/C [7]: 56 % of control

CN(c1ccccc1)P(=O)(N1CC1)N1CC1
T/C (endpoint: mean tumor weight, dose: 12.5 mg/kg/injection, schedule: Q07DX007 (ip), vehicle: saline): 3 % of control

CS(=O)(=O)OCCCCOS(C)(=O)=O
T/C (endpoint: median tumor weight (est.), dose: 12.5 mg/kg/injection, schedule: Q07DX005 (ip), vehicle: Klucel (hydroxypropylcellulose) (HPC)): 91 % of control and 95 % of control | T/C (endpoint: median tumor weight (est.), dose: 25.0 mg/kg/injection, schedule: Q07DX005 (ip), vehicle: Klucel (hydroxypropylcellulose) (HPC)): 59 % of control and 70 % of control | T/C (endpoint: median tumor weight (est.), dose: 200.0 mg/kg/injection, schedule: Q07DX005 (ip), vehicle: Klucel (hydroxypropylcellulose) (HPC)): 8 % of control

O=S(=O)(N=N/C=C1\C=CC=CN1O)c1cccs1
T/C [4]: 76 % of control | T/C [5]: 88 % of control

Cc1cc(NCCCCCCCCNc2cc(C)nc3cc(N(C)C)ccc23)c2ccc(N(C)C)cc2n1
T/C (endpoint: median tumor weight change, dose: 31.0 mg/kg/injection, schedule: Q01DX001 (ip), vehicle: distilled water + Tween-80): 35 % of control | T/C (endpoint: median tumor weight change, dose: 62.5 mg/kg/injection, schedule: Q01DX001 (ip), vehicle: distilled water + Tween-80): 47 % of control and 54 % of control | T/C (endpoint: median tumor weight change, dose: 125.0 mg/kg/injection, schedule: Q01DX001 (ip), vehicle: distilled water + Tween-80 + alcohol): 105 % of control | T/C (endpoint: median tumor weight change, dose: 250.0 mg/kg/injection, schedule: Q01DX001 (ip), vehicle: distilled water + Tween-80 + alcohol): 104 % of control

O=c1cc[nH]c(=O)o1
T/C (endpoint: mean tumor weight, dose: 5.0 mg/kg/injection, schedule: Q04DX008 (ip), vehicle: water): 75 % of control | T/C (endpoint: mean tumor weight, dose: 10.0 mg/kg/injection, schedule: Q04DX008 (ip), vehicle: water): 109 % of control | T/C (endpoint: mean tumor weight, dose: 20.0 mg/kg/injection, schedule: Q04DX008 (ip), vehicle: water): 70 % of control | T/C (endpoint: mean tumor weight, dose: 25.0 mg/kg/injection, schedule: Q07DX005 (ip), vehicle: saline): 112 % of control | T/C (endpoint: mean tumor weight, dose: 25.0 mg/kg/injection, schedule: Q07DX007 (ip), vehicle: saline): 152 % of control | T/C (endpoint: mean tumor weight, dose: 50.0 mg/kg/injection, schedule: Q07DX005 (ip), vehicle: saline): 54 % of control | T/C (endpoint: mean tumor weight, dose: 50.0 mg/kg/injection, schedule: Q07DX007 (ip), vehicle: saline): 87 % of control | T/C (endpoint: mean tumor weight, dose: 75.0 mg/kg/injection, schedule: Q07DX007 (ip), vehicle: saline): 46 % of control | T/C (endpoint: median tumor weight (est.), dose: 12.2 mg/kg/injection, schedule: Q07DX005 (ip), vehicle: saline): 62 % of control | T/C (endpoint: median tumor weight (est.), dose: 28.0 mg/kg/injection, schedule: Q07DX005 (ip), vehicle: saline): 83 % of control | T/C (endpoint: median tumor weight (est.), dose: 42.0 mg/kg/injection, schedule: Q07DX005 (ip), vehicle: saline): 118 % of control | T/C (endpoint: median tumor weight (est.), dose: 63.0 mg/kg/injection, schedule: Q07DX005 (ip), vehicle: saline): 67 % of control

N[C@@H](Cc1ccc(N(CCCl)CCCl)cc1)C(=O)O
T/C (endpoint: mean tumor weight, dose: 1.25 mg/kg/injection, schedule: Q01DX009 (ip), vehicle: saline): 10 % of control | T/C (endpoint: mean tumor weight, dose: 2.5 mg/kg/injection, schedule: Q01DX009 (ip), vehicle: saline): 3 % of control | T/C (endpoint: mean tumor weight, dose: 4.0 mg/kg/injection, schedule: Q07DX006 (ip), vehicle: saline): 12 % of control | T/C (endpoint: mean tumor weight, dose: 5.0 mg/kg/injection, schedule: Q07DX006 (ip), vehicle: saline): 3 % of control | T/C (endpoint: mean tumor weight, dose: 8.0 mg/kg/injection, schedule: Q07DX006 (ip), vehicle: saline): 1 % of control | T/C (endpoint: median tumor weight (est.), dose: 1.0 mg/kg/injection, schedule: Q07DX005 (ip), vehicle: Klucel (hydroxypropylcellulose) (HPC)): 91 % of control | T/C (endpoint: median tumor weight (est.), dose: 1.0 mg/kg/injection, schedule: Q07DX005 (ip), vehicle: suspension in saline): 60 % of control | T/C (endpoint: median tumor weight (est.), dose: 2.0 mg/kg/injection, schedule: Q01DX001 (ip), vehicle: suspension in saline): 93 % of control and 114 % of control | T/C (endpoint: median tumor weight (est.), dose: 2.0 mg/kg/injection, schedule: Q07DX005 (ip), vehicle: Klucel (hydroxypropylcellulose) (HPC)): 42 % of control | T/C (endpoint: median tumor weight (est.), dose: 3.0 mg/kg/injection, schedule: Q07DX005 (ip), vehicle: suspension in saline): 6 % of control | T/C (endpoint: median tumor weight (est.), dose: 4.0 mg/kg/injection, schedule: Q01DX001 (ip), vehicle: suspension in saline): 62 % of control and 70 % of control | T/C (endpoint: median tumor weight (est.), dose: 4.0 mg/kg/injection, schedule: Q07DX005 (ip), vehicle: Klucel (hydroxypropylcellulose) (HPC)): 16 % of control | T/C (endpoint: median tumor weight (est.), dose: 4.0 mg/kg/injection, schedule: Q07DX005 (ip), vehicle: suspension in saline): 12 % of control | T/C (endpoint: median tumor weight (est.), dose: 5.0 mg/kg/injection, schedule: Q07DX005 (ip), vehicle: suspension in saline): 1 % of control | T/C (endpoint: median tumor weight (est.), dose: 5.3 mg/kg/injection, schedule: Q01DX001 (ip), vehicle: suspension in saline): 15 % of control | T/C (endpoint: median tumor weight (est.), dose: 8.0 mg/kg/injection, schedule: Q07DX005 (ip), vehicle: Klucel (hydroxypropylcellulose) (HPC)): 9 % of control | T/C (endpoint: median tumor weight (est.), dose: 8.0 mg/kg/injection, schedule: Q07DX005 (ip), vehicle: suspension in saline): 1 % of control | T/C (endpoint: median tumor weight (est.), dose: 12.0 mg/kg/injection, schedule: Q01DX001 (ip), vehicle: suspension in saline): 7 % of control | T/C (endpoint: median tumor weight (est.), dose: 16.0 mg/kg/injection, schedule: Q01DX001 (ip), vehicle: suspension in saline): 8 % of control and 18 % of control | T/C (endpoint: median tumor weight (est.), dose: 18.0 mg/kg/injection, schedule: Q01DX001 (ip), vehicle: suspension in saline): 7 % of control | T/C (endpoint: median tumor weight change, dose: 3.0 mg/kg/injection, schedule: Q01DX001 (ip), vehicle: saline): 72 % of control | T/C (endpoint: median tumor weight change, dose: 5.0 mg/kg/injection, schedule: Q01DX001 (ip), vehicle: saline): 4 % of control | T/C (endpoint: median tumor weight change, dose: 10.0 mg/kg/injection, schedule: Q01DX001 (ip), vehicle: saline): -6 % of control | T/C (endpoint: median tumor weight change, dose: 20.0 mg/kg/injection, schedule: Q01DX001 (ip), vehicle: saline): -82 % of control

NCC1CCC(C(=O)O)CC1 (stereo not given)
T/C [4]: 63 % of control | T/C [5]: 86 % of control | T/C [6]: 36 % of control | T/C [7]: 97 % of control | T/C (endpoint: median tumor weight change, dose: 2000.0 mg/kg/injection, schedule: Q01DX001 (ip), vehicle: saline with Tween-80): 62 % of control

Nc1nc(=S)c2ncn(C3CC(O)C(CO)O3)c2[nH]1 (stereo not given)
T/C (endpoint: median tumor weight (est.), dose: 10.0 mg/kg/injection, schedule: Q07DX005 (ip), vehicle: saline with Tween-80): 17 % of control and 37 % of control | T/C [1]: 81 % of control | T/C (endpoint: median tumor weight (est.), dose: 20.0 mg/kg/injection, schedule: Q07DX005 (ip), vehicle: saline with Tween-80): 9 % of control and 21 % of control | T/C [2]: 101 % of control | T/C (endpoint: median tumor weight (est.), dose: 40.0 mg/kg/injection, schedule: Q07DX005 (ip), vehicle: saline with Tween-80): 6 % of control and 7 % of control | T/C [3]: 72 % of control | T/C (endpoint: median tumor weight (est.), dose: 80.0 mg/kg/injection, schedule: Q07DX005 (ip), vehicle: saline with Tween-80): 2 % of control and 5 % of control | T/C (endpoint: median tumor weight (est.), dose: 200.0 mg/kg/injection, schedule: Q07DX005 (ip), vehicle: suspension in saline): 62 % of control

COc1cc(Cc2nccc3cc(OC)c(OC)cc23)c(C(C)=O)c(OC)c1
T/C (endpoint: median tumor weight (est.), dose: 10.0 mg/kg/injection, schedule: Q07DX005 (ip), vehicle: suspension in saline): 57 % of control | T/C (endpoint: median tumor weight (est.), dose: 20.0 mg/kg/injection, schedule: Q07DX005 (ip), vehicle: suspension in saline): 45 % of control | T/C (endpoint: median tumor weight (est.), dose: 40.0 mg/kg/injection, schedule: Q07DX005 (ip), vehicle: suspension in saline): 46 % of control | T/C (endpoint: median tumor weight (est.), dose: 80.0 mg/kg/injection, schedule: Q07DX005 (ip), vehicle: suspension in saline): 61 % of control | T/C (endpoint: median tumor weight (est.), dose: 160.0 mg/kg/injection, schedule: Q07DX005 (ip), vehicle: suspension in saline): 49 % of control

O=C(Nc1nncs1)c1cccs1
T/C [4]: 92 % of control and 100 % of control
